The record followed here is patent US9000159B2 (Glenmark Pharmaceuticals, S.A., priority 2009, dated 2015).

pIC50: −log10 of the molar value. Where only a bound is given, the exact number is not on record here.

In general, inhibition refers to the change of the read-out against control, counted positive when it falls. A word on the pIC50: it is the IC50 on a negative log10 scale, so that one unit is a factor of ten.

This test addresses T1, Human TRPA1 (Homo sapiens, UniProt O75762).
T1 construct: expressed in transfected cells; host or cells: CHO cells
The test can be described thus: 45Calcium uptake assay: inhibition of AITC induced cellular uptake of radioactive calcium. Format: cell-based. The note with it: AITC (30 μM) induced 45Ca uptake, Human TRPA1 expressing CHO cells; for inhibition at 1 µM: 1.0 μM test compound, read-out: Percentage inhibition at 1.0 μM; for inhibition at 10 µM: 10.0 μM test compound, read-out: Percentage inhibition at 10.0 μM; for pIC50: read-out: Human IC50 value (range). The source says: The illustrative examples of the present invention are screened for TRPA1 activity according to a modified procedure described in (a) Tóth, A. et al., Life Sciences, 2003, 73, 487-498. (b) McNamara C, R. et al., Proc. Natl. Acad. Sci. U.S.A., 2007, 104, 13525-13530. The screening of the compounds can be carried out by other methods and procedures known to persons skilled in the art.
Screening for TRPA1 Antagonist Using the ^45Calcium Uptake Assay
The inhibition of TRPA1 receptor activation was measured as inhibition of allyl isothiocyanate (AITC) induced cellular uptake of radioactive calcium. Test compounds were dissolved in DMSO to prepare 10 mM stock solution and then diluted using plain medium with 0.1% BSA and 1.8 mM CaCl2 to get desired concentration. Final concentration of DMSO in the reaction was 0.5% (v/v). Human TRPA1 expressing CHO cells were grown in F-12 DMEM medium with 10% FBS, 1% penicillin-streptomycin solution, 400 μg/ml of G-418. Cells were seeded 24 h prior to the assay in 96 well plates so as to get ˜50,000 cells per well on the day of experiment. Cells were treated with test compounds for 10 min followed by addition of AITC at a final concentration of 30 μM and 5 μCi/ml ^45Ca^+2 for 3 min. Cells were washed and lysed using buffer containing 1% Triton X-100, 0.1% deoxycholate and 0.1% SDS. Radioactivity in the lysate was measured in Packard Top count after addition of liquid scintillant. Concentration response curves were plotted as a % of maximal response obtained in the absence of test antagonist. IC50 value was calculated from concentration response curve by nonlinear regression analysis using GraphPad PRISM software.

T1 sequence (O75762 whole entry): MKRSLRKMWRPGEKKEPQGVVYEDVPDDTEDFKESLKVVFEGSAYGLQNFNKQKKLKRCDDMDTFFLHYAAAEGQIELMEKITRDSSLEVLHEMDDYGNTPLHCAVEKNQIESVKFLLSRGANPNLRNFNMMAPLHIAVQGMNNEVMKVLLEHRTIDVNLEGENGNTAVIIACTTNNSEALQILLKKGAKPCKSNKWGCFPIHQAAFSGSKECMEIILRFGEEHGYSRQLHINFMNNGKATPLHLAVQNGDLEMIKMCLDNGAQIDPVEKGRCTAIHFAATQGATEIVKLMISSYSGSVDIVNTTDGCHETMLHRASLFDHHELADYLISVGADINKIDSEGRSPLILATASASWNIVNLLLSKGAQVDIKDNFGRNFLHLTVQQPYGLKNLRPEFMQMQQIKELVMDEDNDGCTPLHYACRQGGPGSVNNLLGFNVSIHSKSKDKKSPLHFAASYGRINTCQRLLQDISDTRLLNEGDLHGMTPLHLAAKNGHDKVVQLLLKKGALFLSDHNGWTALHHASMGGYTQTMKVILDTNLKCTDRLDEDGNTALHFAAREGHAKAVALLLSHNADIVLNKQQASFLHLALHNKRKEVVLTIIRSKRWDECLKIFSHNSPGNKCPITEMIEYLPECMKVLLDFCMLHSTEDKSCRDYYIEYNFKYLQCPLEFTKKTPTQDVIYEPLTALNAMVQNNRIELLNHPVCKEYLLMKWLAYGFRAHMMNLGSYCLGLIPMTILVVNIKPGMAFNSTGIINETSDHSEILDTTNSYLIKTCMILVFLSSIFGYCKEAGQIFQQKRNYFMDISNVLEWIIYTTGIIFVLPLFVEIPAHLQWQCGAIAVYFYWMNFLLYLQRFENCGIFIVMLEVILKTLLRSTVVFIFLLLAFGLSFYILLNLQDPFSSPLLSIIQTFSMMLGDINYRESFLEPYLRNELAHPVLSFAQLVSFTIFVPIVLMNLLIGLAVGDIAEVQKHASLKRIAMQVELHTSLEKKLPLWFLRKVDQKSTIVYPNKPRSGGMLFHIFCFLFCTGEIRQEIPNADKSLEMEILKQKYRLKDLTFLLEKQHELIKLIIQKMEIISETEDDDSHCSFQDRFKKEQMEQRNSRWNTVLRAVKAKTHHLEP

As to `Cn1c(=O)c2c(ccn2CC(=O)Nc2nc(-c3cc(F)c(OC(F)F)c(F)c3)cs2)n(C)c1=O` [Example 10, N-{4-[4-(Difluoromethoxy)-3,5-difluorophenyl]-1,3-thiazol-2-yl}-2-(1,3-dimethyl-2,4-dioxo-1,2,3,4-tetrahydro-5H-pyrrolo[3,2-d]pyrimidin-5-yl)acetamide], the inhibition at 1 µM came to 91%, the inhibition at 10 µM was 95.3% and the pIC50 is 7.00 to 7.30.

Consider `Cn1c(=O)c2c(ccn2CC(=O)Nc2nc(-c3cc(F)c(OCC(F)(F)F)c(F)c3)cs2)n(C)c1=O` [Example 11, N-{4-[3,5-Difluoro-4-(2,2,2-trifluoroethoxy)phenyl]-1,3-thiazol-2-yl}-2-(1,3-dimethyl-2,4-dioxo-1,2,3,4-tetrahydro-5H-pyrrolo[3,2-d]pyrimidin-5-yl)acetamide], for which the inhibition at 1 µM is 96.3%, the inhibition at 10 µM was 98.1% and the pIC50 is greater than 7.30.

Consider `Cn1c(=O)c2c(ccn2CC(=O)Nc2nc(-c3cc(F)c(OCCC(F)(F)F)c(F)c3)cs2)n(C)c1=O` [Example 12, N-{4-[3,5-Difluoro-4-(3,3,3-trifluoropropoxy)phenyl]-1,3-thiazol-2-yl}-2-(1,3-dimethyl-2,4-dioxo-1,2,3,4-tetrahydro-5H-pyrrolo[3,2-d]pyrimidin-5-yl)acetamide], for which the inhibition at 1 µM worked out at 97.4%, the inhibition at 10 µM came out at 96% and the negative logarithm of the IC50 (pIC50) is greater than 7.30.

For `Cn1c(=O)c2c(ccn2CC(=O)Nc2nc(-c3cc(Cl)c(OCC(C)(C)C)c(Cl)c3)cs2)n(C)c1=O` [Example 13, N-{4-[3,5-Dichloro-4-(2,2-dimethylpropoxy)phenyl]-1,3-thiazol-2-yl}-2-(1,3-dimethyl-2,4-dioxo-1,2,3,4-tetrahydro-5H-pyrrolo[3,2-d]pyrimidin-5-yl)acetamide], the inhibition at 1 µM came to 86.5%, the inhibition at 10 µM was 98.8% and the pIC50 was 7.00 to 7.30.

In the case of `Cn1c(=O)c2c(ccn2CC(=O)Nc2nc(-c3cc(Cl)c(OCCC(F)(F)F)c(Cl)c3)cs2)n(C)c1=O` [Example 14, N-{4-[3,5-Dichloro-4-(3,3,3-trifluoropropoxy)phenyl]-1,3-thiazol-2-yl}-2-(1,3-dimethyl-2,4-dioxo-1,2,3,4-tetrahydro-5H-pyrrolo[3,2-d]pyrimidin-5-yl)acetamide], the inhibition at 1 µM came out at 92.5%, the inhibition at 10 µM came out at 92.5% and the pIC50 is greater than 7.30.

Turning to `Cn1c(=O)c2c(ccn2CC(=O)Nc2nc(-c3cc(Cl)c(OCCC(F)(F)C(F)(F)F)c(Cl)c3)cs2)n(C)c1=O` [Example 15, N-{4-[3,5-Dichloro-4-(3,3,4,4,4-pentafluorobutoxy)phenyl]-1,3-thiazol-2-yl}-2-(1,3-dimethyl-2,4-dioxo-1,2,3,4-tetrahydro-5H-pyrrolo[3,2-d]pyrimidin-5-yl)acetamide], the inhibition at 1 µM came out at 76.5%, the inhibition at 10 µM turned out to be 92.5% and the pIC50 is 7.00 to 7.30.

With `Cn1c(=O)c2c(ccn2CC(=O)Nc2nc(-c3cc(F)c(OCC(F)(F)F)c(Cl)c3)cs2)n(C)c1=O` [Example 16, N-{4-[3-Chloro-5-fluoro-4-(2,2,2-trifluoroethoxy)phenyl]-1,3-thiazol-2-yl}-2-(1,3-dimethyl-2,4-dioxo-1,2,3,4-tetrahydro-5H-pyrrolo[3,2-d]pyrimidin-5-yl)acetamide], the inhibition at 1 µM worked out at 95%, the inhibition at 10 µM came out at 97.1% and the pIC50 was greater than 7.30.

Consider `Cn1c(=O)c2c(ccn2CC(=O)Nc2nc(-c3cc(F)c(OCC4CC4)c(F)c3)cs2)n(C)c1=O` [Example 17, 2-(1,3-Dimethyl-2,4-dioxo-1,2,3,4-tetrahydro-5H-pyrrolo[3,2-d]pyrimidin-5-yl)-N-{4-[4-(cyclopropylmethoxy)-3,5-difluorophenyl]-1,3-thiazol-2-yl}acetamide], for which the inhibition at 1 µM was determined as 33.5% and the inhibition at 10 µM worked out at 49.9%.

For `Cn1c(=O)c2c(ccn2CC(=O)Nc2nc(-c3cc(F)c(OCC4CCC4)c(F)c3)cs2)n(C)c1=O` [Example 18, 2-(1,3-Dimethyl-2,4-dioxo-1,2,3,4-tetrahydro-5H-pyrrolo[3,2-d]pyrimidin-5-yl)-N-{4-[4-(cyclobutylmethoxy)-3,5-difluorophenyl]-1,3-thiazol-2-yl}acetamide], the inhibition at 1 µM is 38.4% and the inhibition at 10 µM stood at 38.7%.

On to `Cn1c(=O)c2c(ccn2CC(=O)Nc2nc(-c3cc(Cl)c(OCC4CCC4)c(Cl)c3)cs2)n(C)c1=O` [Example 19, 2-(1,3-Dimethyl-2,4-dioxo-1,2,3,4-tetrahydro-5H-pyrrolo[3,2-d]pyrimidin-5-yl)-N-{4-[4-(cyclobutylmethoxy)-3,5-dichlorophenyl]-1,3-thiazol-2-yl}acetamide], for which the inhibition at 1 µM was found to be 72.1% and the inhibition at 10 µM was 76.9%.

With `Cn1c(=O)c2c(ccn2CC(=O)Nc2nc(-c3cc(F)c(OCc4ccccc4C(F)(F)F)c(F)c3)cs2)n(C)c1=O` [Example 20, 2-(1,3-Dimethyl-2,4-dioxo-1,2,3,4-tetrahydro-5H-pyrrolo[3,2-d]pyrimidin-5-yl)-N-{4-[3,5-difluoro-4-[2-(trifluoromethyl)benzyloxy]phenyl)-1,3-thiazol-2-yl}acetamide], the inhibition at 1 µM was determined as 22.6% and the inhibition at 10 µM amounted to 67.7%.

Turning to `Cn1c(=O)c2c(ccn2CC(=O)Nc2nc(-c3cc(F)c(OCc4ccc(C(F)(F)F)cc4)c(F)c3)cs2)n(C)c1=O` [Example 21, 2-(1,3-Dimethyl-2,4-dioxo-1,2,3,4-tetrahydro-5H-pyrrolo[3,2-d]pyrimidin-5-yl)-N-{4-[3,5-difluoro-4-[4-(trifluoromethyl)benzyloxy]phenyl)-1,3-thiazol-2-yl}acetamide], the inhibition at 1 µM came to 11.2% and the inhibition at 10 µM was found to be 16.2%.

For the compound `Cc1cc2c(c(=O)n(C)c(=O)n2C)n1CC(=O)Nc1nc(-c2ccc(C(F)(F)F)c(F)c2)cs1` [Example 22, N-[4-(3-Fluoro-4-trifluoromethylphenyl)-1,3-thiazol-2-yl]-2-(1,3,6-trimethyl-2,4-dioxo-1,2,3,4-tetrahydro-5H-pyrrolo[3,2-d]pyrimidin-5-yl)acetamide], the inhibition at 1 µM was determined as 81.4%, the inhibition at 10 µM was 99.4% and the pIC50 is greater than 7.30.

In the case of `Cn1c(=O)c2c(ccn2CC(=O)Nc2nc(-c3ccc(OCC(F)(F)F)c(Br)c3)cs2)n(C)c1=O` [Example 23, N-{4-[3-Bromo-4-(2,2,2-trifluoroethoxy)phenyl]-1,3-thiazol-2-yl}-2-(1,3-dimethyl-2,4-dioxo-1,2,3,4-tetrahydro-5H-pyrrolo[3,2-d]pyrimidin-5-yl)acetamide], the inhibition at 1 µM was determined as 87.4%, the inhibition at 10 µM worked out at 92.2% and the pIC50 was 7.00 to 7.30.

For the compound `Cc1cc2c(c(=O)n(C)c(=O)n2C)n1CC(=O)Nc1nc(-c2cc(F)c(OCC(C)(C)C)c(F)c2)cs1` [Example 24, N1-{4-[3,5-Difluoro-4-(2,2-dimethylpropoxy)phenyl]-1,3-thiazol-2-yl}-2-(1,3,6-trimethyl-2,4-dioxo-1,2,3,4-tetrahydro-5H-pyrrolo[3,2-d]pyrimidin-5-yl)acetamide], the inhibition at 1 µM amounted to 93.9%, the inhibition at 10 µM amounted to 99.4% and the pIC50 was greater than 7.30.

Regarding `Cc1cc2c(c(=O)n(C)c(=O)n2C)n1CC(=O)Nc1nc(-c2ccc(F)c(C(F)(F)F)c2F)cs1` [Example 25], the inhibition at 1 µM came out at 68.3% and the inhibition at 10 µM is 94.8%.

As for `Cc1cc2c(c(=O)n(C)c(=O)n2C)n1CC(=O)Nc1nc(-c2cc(F)c(OCC(F)(F)F)c(F)c2)cs1` [Example 26, N-[4-(3,5-Difluoro-4-(2,2,2-trifluoroethoxy)phenyl)-1,3-thiazol-2-yl]-2-(1,3,6-trimethyl-2,4-dioxo-1,2,3,4-tetrahydro-5H-pyrrolo[3,2-d]pyrimidin-5-yl)acetamide], the inhibition at 1 µM came out at 95.3%, the inhibition at 10 µM came out at 98.3% and the pIC50 was greater than 7.30.

Regarding `Cc1cc2c(c(=O)n(C)c(=O)n2C)n1CC(=O)Nc1nc(-c2cc(F)c(OCC3CCC3)c(F)c2)cs1` [Example 27, N-[4-(4-Cyclobutylmethoxy-3,5-difluorophenyl)-1,3-thiazol-2-yl]-2-(1,3,6-trimethyl-2,4-dioxo-1,2,3,4-tetrahydro-5H-pyrrolo[3,2-d]pyrimidin-5-yl)acetamide], the inhibition at 1 µM is 87.6%, the inhibition at 10 µM is 99.2% and the pIC50 is greater than 7.30.

With `Cc1cc2c(c(=O)n(C)c(=O)n2C)n1CC(=O)Nc1nc(-c2cc(F)c(OCC(C)(C)C)c(Cl)c2)cs1` [Example 28], the inhibition at 1 µM worked out at 99.5%, the inhibition at 10 µM stood at 99.7% and the pIC50 was greater than 7.30.
